Reference: the supplement of paper PMC8671470

Legend:
Conditions in all cases: 72 h
[1] = tested on: myeloid leukemia patient primary cells Pat.11; assay: cell viability (% survival relative to DMSO control); higher = less cytotoxic
How it was run: (§1)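 Seventy compounds were pre-printed on 384-well plates at five tenfold concentrations between 1 and 10,000 nM, in duplicate. Thawed mononuclear cells purified by Ficoll from AML or CML patients were added at 10,000 cells/well in RPMI 1640 with 10% FBS for 72 h. Viability by CellTiter-Glo was normalised to DMSO and 10 μM proteasome-inhibitor wells. Where stated, area under the curve was taken from log-logistic fits made with the drc and PharmacoGx R packages, each fit having four parameters.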

[2] = tested on: myeloid leukemia patient primary cells Pat.14; assay: as above
How it was run: as §1

[3] = tested on: myeloid leukemia patient primary cells Pat.1; assay: as above
How it was run: as §1

[4] = tested on: myeloid leukemia patient primary cells Pat.10; assay: as above
How it was run: as §1

[5] = tested on: myeloid leukemia patient primary cells Pat.6; assay: as above
How it was run: as §1

[6] = tested on: myeloid leukemia patient primary cells Pat.4; assay: as above
How it was run: as §1

[7] = tested on: myeloid leukemia patient primary cells Pat.12; assay: as above
How it was run: as §1

[8] = tested on: myeloid leukemia patient primary cells Pat.13; assay: as above
How it was run: as §1

[9] = tested on: myeloid leukemia patient primary cells Pat.15; assay: as above
How it was run: as §1

[10] = tested on: myeloid leukemia patient primary cells Pat.3; assay: as above
How it was run: as §1

[11] = tested on: myeloid leukemia patient primary cells Pat.2; assay: as above
How it was run: as §1

[12] = tested on: myeloid leukemia patient primary cells Pat.7; assay: as above
How it was run: as §1

[13] = tested on: myeloid leukemia patient primary cells Pat.5; assay: as above
How it was run: as §1

[14] = tested on: myeloid leukemia patient primary cells Pat.8; assay: as above
How it was run: as §1

KG-1 = assay: cell viability (% survival relative to DMSO control, bortezomib = 0%); higher = less cytotoxic
How it was run: (§2)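 Fifteen myeloid leukaemia cell lines (10 AML, 5 CML) were seeded at a density titrated to the linear growth range into 384-well plates pre-printed with compounds at 1, 10, 100, 1000 or 10000 nM in duplicate. Plates were incubated for 72 h at 37 °C with 5% CO2. Viability was then read by CellTiter-Glo luminescence. Each value is percent survival averaged over the duplicates, with vehicle set to 100% and a 10 µM positive control to 0%.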

KCL-22 = assay: as above
How it was run: as §2

MOLM-13 = assay: as above
How it was run: as §2

HL-60 = assay: area under dose-response curve (viability, 1 nM-10 uM) (fraction (0-1)); higher = more sensitive
How it was run: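 Area under the curve, where listed, was derived from four-parameter log-logistic fits with drc and PharmacoGx. These fits used CellTiter-Glo viability from HL-60 cells in RPMI 1640 with 10% FBS, normalised to DMSO wells and wells holding 10 μM proteasome inhibitor. The full library was rescreened on 384-well plates in duplicate at five tenfold concentrations, 1–10,000 nM, with DMSO or 100 nM of one of three metabolic inhibitors, for 72 h at 37 °C, 5% CO2.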

[15] = co-treatment: GSK2194069 100 nM

Compound: CC[C@@]1(O)C(=O)OCc2c1cc1n(c2=O)Cc2cc3c(CN(C)C)c(O)ccc3nc2-1 [Topotecan]
- cell viability ([1]; 1 nM): 99.8%
- cell viability ([1]; 10 nM): 97.2%
- cell viability ([1]; 100 nM): 92.4%
- cell viability ([1]; 1000 nM): 76.2%
- cell viability ([1]; 10000 nM): 53.3%
- cell viability ([2]; 1 nM): 96%
- cell viability ([2]; 10 nM): 97%
- cell viability ([2]; 100 nM): 72.4%
- cell viability ([2]; 1000 nM): 58.2%
- cell viability ([2]; 10000 nM): 6.19%
- cell viability ([3]; 1 nM): 83.6%
- cell viability ([3]; 10 nM): 80.9%
- cell viability ([3]; 100 nM): 98.6%
- cell viability ([3]; 1000 nM): 96%
- cell viability ([3]; 10000 nM): 28.6%
- cell viability ([4]; 1 nM): 84.6%
- cell viability ([4]; 10 nM): 88.3%
- cell viability ([4]; 100 nM): 35.4%
- cell viability ([4]; 1000 nM): 6.65%
- cell viability ([4]; 10000 nM): 1.3%
- cell viability ([5]; 1 nM): > 100%
- cell viability ([5]; 10 nM): 97.4%
- cell viability ([5]; 100 nM): 94.6%
- cell viability ([5]; 1000 nM): 75.1%
- cell viability ([5]; 10000 nM): 32.5%
- cell viability ([6]; 1 nM): 75.3%
- cell viability ([6]; 10 nM): 84.2%
- cell viability ([6]; 100 nM): > 100%
- cell viability ([6]; 1000 nM): 82.5%
- cell viability ([6]; 10000 nM): 4.14%
- cell viability ([7]; 1 nM): 95.3%
- cell viability ([7]; 10 nM): 97%
- cell viability ([7]; 100 nM): 92.1%
- cell viability ([7]; 1000 nM): 93.5%
- cell viability ([7]; 10000 nM): 48.3%
- cell viability ([8]; 1 nM): 85.7%
- cell viability ([8]; 10 nM): 91.7%
- cell viability ([8]; 100 nM): 92.3%
- cell viability ([8]; 1000 nM): 97.4%
- cell viability ([8]; 10000 nM): 21.9%
- cell viability ([9]; 1 nM): 95.4%
- cell viability ([9]; 10 nM): 89.4%
- cell viability ([9]; 100 nM): 83.5%
- cell viability ([9]; 1000 nM): 54.8%
- cell viability ([9]; 10000 nM): 0.856%
- cell viability ([10]; 1 nM): 90.9%
- cell viability ([10]; 10 nM): 89.8%
- cell viability ([10]; 100 nM): 20%
- cell viability ([10]; 1000 nM): 18.6%
- cell viability ([10]; 10000 nM): 2.85%
- cell viability ([11]; 1 nM): 90.7%
- cell viability ([11]; 10 nM): 92.9%
- cell viability ([11]; 100 nM): 95.9%
- cell viability ([11]; 1000 nM): 72%
- cell viability ([11]; 10000 nM): 39.5%
- cell viability ([12]; 1 nM): 80.1%
- cell viability ([12]; 10 nM): 94.3%
- cell viability ([12]; 100 nM): 81.4%
- cell viability ([12]; 1000 nM): 34.7%
- cell viability ([12]; 10000 nM): < 0%
- cell viability ([13]; 1 nM): 91.7%
- cell viability ([13]; 10 nM): 66.1%
- cell viability ([13]; 100 nM): 53.1%
- cell viability ([13]; 1000 nM): 19.8%
- cell viability ([13]; 10000 nM): 0.265%
- cell viability ([14]; 1 nM): 76.3%
- cell viability ([14]; 10 nM): 69.7%
- cell viability ([14]; 100 nM): 93.5%
- cell viability ([14]; 1000 nM): 87.2%
- cell viability ([14]; 10000 nM): 27.3%
- cell viability (KG-1; 1 nM): 95.6%
- cell viability (KG-1; 10 nM): 91.2%
- cell viability (KG-1; 100 nM): 21.3%
- cell viability (KG-1; 1000 nM): 8.99%
- cell viability (KG-1; 10000 nM): 6.8%
- cell viability (KCL-22; 1 nM): 97.2%
- cell viability (KCL-22; 10 nM): 97.8%
- cell viability (KCL-22; 100 nM): 27.9%
- cell viability (KCL-22; 1000 nM): 5.33%
- cell viability (KCL-22; 10000 nM): 1.56%
- cell viability (MOLM-13; 1 nM): 91.4%
- cell viability (MOLM-13; 10 nM): 70.9%
- cell viability (MOLM-13; 100 nM): 0.317%
- cell viability (MOLM-13; 1000 nM): 2.79%
- cell viability (MOLM-13; 10000 nM): 0.537%
- area under dose-response curve (HL-60; co-treatment: AZD3965 100 nM): 0.608
- area under dose-response curve (HL-60; co-treatment: DMSO vehicle): 0.585
- area under dose-response curve (HL-60; [15]): 0.58
- area under dose-response curve (HL-60; co-treatment: pictilisib 100 nM): 0.597

Compound: CCC(=O)N1CCN(c2ccc(-n3c(=O)ccc4cnc5ccc(-c6cnc7ccccc7c6)cc5c43)cc2C(F)(F)F)CC1 [Torin1]
- cell viability ([1]; 1 nM): 92.9%
- cell viability ([1]; 10 nM): 90.9%
- cell viability ([1]; 100 nM): 85.8%
- cell viability ([1]; 1000 nM): 56.7%
- cell viability ([1]; 10000 nM): 39.4%
- cell viability ([2]; 1 nM): 77.2%
- cell viability ([2]; 10 nM): 82.1%
- cell viability ([2]; 100 nM): 74.3%
- cell viability ([2]; 1000 nM): 38.1%
- cell viability ([2]; 10000 nM): 54.1%
- cell viability ([3]; 1 nM): 85.1%
- cell viability ([3]; 10 nM): 60.4%
- cell viability ([3]; 100 nM): 44.2%
- cell viability ([3]; 1000 nM): 30.2%
- cell viability ([3]; 10000 nM): 21.5%
- cell viability ([4]; 1 nM): 63.9%
- cell viability ([4]; 10 nM): 96.5%
- cell viability ([4]; 100 nM): 30%
- cell viability ([4]; 1000 nM): 18.6%
- cell viability ([4]; 10000 nM): 9.9%
- cell viability ([5]; 1 nM): 97.8%
- cell viability ([5]; 10 nM): 89.3%
- cell viability ([5]; 100 nM): 94.1%
- cell viability ([5]; 1000 nM): 62.6%
- cell viability ([5]; 10000 nM): 62.9%
- cell viability ([6]; 1 nM): 91.6%
- cell viability ([6]; 10 nM): 76%
- cell viability ([6]; 100 nM): 59.8%
- cell viability ([6]; 1000 nM): 40.2%
- cell viability ([6]; 10000 nM): 12.8%
- cell viability ([7]; 1 nM): 90.6%
- cell viability ([7]; 10 nM): 91.5%
- cell viability ([7]; 100 nM): 92.3%
- cell viability ([7]; 1000 nM): 91.5%
- cell viability ([7]; 10000 nM): 89.5%
- cell viability ([8]; 1 nM): 91.5%
- cell viability ([8]; 10 nM): 77.7%
- cell viability ([8]; 100 nM): 75.2%
- cell viability ([8]; 1000 nM): 43%
- cell viability ([8]; 10000 nM): 51%
- cell viability ([9]; 1 nM): 80.6%
- cell viability ([9]; 10 nM): 55.9%
- cell viability ([9]; 100 nM): 20.2%
- cell viability ([9]; 1000 nM): 14.2%
- cell viability ([9]; 10000 nM): 12.1%
- cell viability ([10]; 1 nM): 96.1%
- cell viability ([10]; 10 nM): > 100%
- cell viability ([10]; 100 nM): 93.2%
- cell viability ([10]; 1000 nM): 66.8%
- cell viability ([10]; 10000 nM): 62.1%
- cell viability ([11]; 1 nM): 92.5%
- cell viability ([11]; 10 nM): 94.3%
- cell viability ([11]; 100 nM): 74.2%
- cell viability ([11]; 1000 nM): 62.8%
- cell viability ([11]; 10000 nM): 64.2%
- cell viability ([12]; 1 nM): 75.7%
- cell viability ([12]; 10 nM): 74.2%
- cell viability ([12]; 100 nM): 88.2%
- cell viability ([12]; 1000 nM): 44.8%
- cell viability ([12]; 10000 nM): 37.6%
- cell viability ([13]; 1 nM): 54.5%
- cell viability ([13]; 10 nM): 13.5%
- cell viability ([13]; 100 nM): 53.9%
- cell viability ([13]; 1000 nM): 1.18%
- cell viability ([13]; 10000 nM): 0.265%
- cell viability ([14]; 1 nM): 91.1%
- cell viability ([14]; 10 nM): 66.9%
- cell viability ([14]; 100 nM): 73.1%
- cell viability ([14]; 1000 nM): 61.7%
- cell viability ([14]; 10000 nM): 53.7%
- cell viability (KG-1; 1 nM): 94.9%
- cell viability (KG-1; 10 nM): 89.7%
- cell viability (KG-1; 100 nM): 81.5%
- cell viability (KG-1; 1000 nM): 29.1%
- cell viability (KG-1; 10000 nM): 26%
- cell viability (KCL-22; 1 nM): 102%
- cell viability (KCL-22; 10 nM): 110%
- cell viability (KCL-22; 100 nM): 87.8%
- cell viability (KCL-22; 1000 nM): 10.9%
- cell viability (KCL-22; 10000 nM): 8.17%
- cell viability (MOLM-13; 1 nM): 93%
- cell viability (MOLM-13; 10 nM): 77.8%
- cell viability (MOLM-13; 100 nM): 70%
- cell viability (MOLM-13; 1000 nM): 16.2%
- cell viability (MOLM-13; 10000 nM): 12.9%
- area under dose-response curve (HL-60; co-treatment: AZD3965 100 nM): 0.0362
- area under dose-response curve (HL-60; co-treatment: DMSO vehicle): < 0.0301
- area under dose-response curve (HL-60; [15]): < 0.0301
